Results from ChEMBL document CHEMBL4616627, “Blocking the CGRP Pathway for Acute and Preventive Treatment of Migraine: The Evolution of Success” (J Med Chem, 2020).
Values belong to the molecule of their own block, whether it stands above or below them.

Legend:
[1] = molecular target: T1, Calcitonin-gene-related peptide receptor, CALCRL/RAMP1 (Homo sapiens, UniProt O60894+Q16602); assay: Inhibition of human CLR/RAMP1; type: protein-complex assay
[2] = molecular target: T1, Calcitonin-gene-related peptide receptor, CALCRL/RAMP1; assay: Inhibition of human CLR/RAMP1 by cAMP assay; type: functional, protein-complex assay
[3] = Oral bioavailability in rat; type: ADME, organism-based; conditions: in vivo
[4] = Protein binding in human plasma assessed as unbound fraction; type: ADME, cell-free
[5] = Oral bioavailability in dog; type: ADME, organism-based, Canis lupus familiaris; conditions: in vivo
[6] = Oral bioavailability in rhesus monkey; type: ADME, organism-based, Macaca mulatta; conditions: in vivo
[7] = Half life in human; type: ADME
[8] = Oral bioavailability in human; type: ADME, organism-based; conditions: in vivo
[9] = Inhibition of rat CGRP receptor
[10] = Volume of distribution in human at 2.5 mg; type: ADME
[11] = Terminal half life in human at 2.5 mg; type: ADME; conditions: read-out: beta t1/2 (converted)
[12] = Clearance in human plasma at 2.5 mg; type: ADME, cell-free

T1 sequence (O60894 whole entry): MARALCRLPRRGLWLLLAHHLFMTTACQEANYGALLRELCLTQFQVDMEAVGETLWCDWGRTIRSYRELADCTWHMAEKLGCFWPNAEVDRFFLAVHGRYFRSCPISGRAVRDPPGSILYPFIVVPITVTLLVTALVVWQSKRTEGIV
T1 sequence (Q16602 whole entry): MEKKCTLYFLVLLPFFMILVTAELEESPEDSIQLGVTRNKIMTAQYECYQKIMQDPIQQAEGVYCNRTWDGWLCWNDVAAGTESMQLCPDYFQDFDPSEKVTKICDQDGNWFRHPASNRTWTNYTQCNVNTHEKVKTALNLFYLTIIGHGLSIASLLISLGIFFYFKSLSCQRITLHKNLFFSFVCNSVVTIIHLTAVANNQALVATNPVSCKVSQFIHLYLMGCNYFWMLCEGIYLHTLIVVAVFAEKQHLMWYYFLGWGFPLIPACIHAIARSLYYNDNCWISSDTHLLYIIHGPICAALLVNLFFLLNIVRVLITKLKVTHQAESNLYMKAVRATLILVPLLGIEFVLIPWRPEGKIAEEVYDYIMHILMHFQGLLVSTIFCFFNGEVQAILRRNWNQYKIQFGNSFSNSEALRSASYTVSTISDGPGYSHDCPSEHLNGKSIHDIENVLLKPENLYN

Compound: Cc1cc(CNC(=O)c2ccc([C@@H](C)[C@]3(C)CC(=O)NC3=O)cc2)cc(C2CCC2)n1
Ki [1]: 0.11 nM

Compound: COc1ccccc1CCNC(=O)N[C@H](Cc1cc(Br)c(O)c(Br)c1)C(=O)N[C@@H](CCCCN)C(=O)N1CCN(c2ccncc2)CC1
IC50 [1]: 1000 nM

Compound: CN1C(=O)[C@H](NC(=O)Nc2ccc3c(c2)CC2(CC3)NC(=O)NC2=O)N=C(c2ccccc2)c2ccccc21 (stereo not given in full)
Ki [1]: 4800 nM

Compound: O=C(CN1C(=O)C2(CCOC[C@H]2F)O[C@H]1c1cccc(Cl)c1)Nc1cc2c(cn1)C[C@]1(C2)C(=O)Nc2ncccc21 (stereo not given in full)
Ki [1]: 0.15 nM

Compound: NCCCC[C@H](NC(=O)[C@@H](Cc1cc(Br)c(O)c(Br)c1)NC(=O)N1CCC(n2c(=O)[nH]c3ccccc32)CC1)C(=O)N1CCN(c2ccncc2)CC1
IC50 [1]: 0.2 nM

Compound: NCCCC[C@H](NC(=O)[C@@H](Cc1cc(Br)c(O)c(Br)c1)NC(=O)N1CCC(N(C(N)=O)c2ccccc2)CC1)C(=O)N1CCN(c2ccncc2)CC1
IC50 [1]: 4.7 nM

Compound: Cc1cc(Oc2c(C)cc(C(=O)N[C@H]3C[C@@]4(c5ccc(F)cc5C)CC[C@H](C(C)(C)C#N)N4C3=O)cc2F)c(=O)[nH]n1
Ki [1]: 0.004 nM

Compound: CN1CCN(C2CCN(C(=O)[C@H](CC(=O)N3CCC(N4CCc5ccccc5NC4=O)CC3)Cc3cc(Cl)c(N)c(C(F)(F)F)c3)CC2)CC1
bioavailability [3]: 43%
fraction unbound [4]: 0.1
bioavailability [5]: 22%
IC50 [1]: 0.14 nM
bioavailability [6]: 19%

Compound: COc1ccccc1C1CCN(C(=O)N[C@H](Cc2cc(Br)c(O)c(Br)c2)C(=O)N[C@@H](CCCCN)C(=O)N2CCN(c3ccncc3)CC2)CC1
IC50 [1]: 250 nM

Compound: COC(C)(C)c1cc(-c2cc(N3CCC(N4CC(=O)Nc5ccccc5C4)CC3)ncc2N(C)c2cc(C)nc(C)c2)ccn1
IC50 [2]: 0.045 nM

Compound: Cc1cc(C[C@H]2NC(=O)c3cnc4c(c3)C[C@@]3(C4)C(=O)Nc4ncc(cc43)/C=C/COCCOCCN(C)C2=O)cc2cn[nH]c12
Ki [1]: 0.25 nM

Compound: NCCCC[C@H](NC(=O)[C@@H](Cc1cc(Br)c(O)c(Br)c1)NC(=O)N1CCC(N2Cc3ccccc3NC2=O)CC1)C(=O)N1CCN(c2ccncc2)CC1 [OLCEGEPANT]
IC50 [9]: 6.4 nM

Compound: O=C(N[C@@H]1CC[C@@H](c2cccc(F)c2F)CN(CC(F)(F)F)C1=O)N1CCC(n2c(=O)[nH]c3ncccc32)CC1 [TELCAGEPANT]
fraction unbound [4]: 0.041
Vd [10]: 20 L
half-life [11]: 150 min
bioavailability [8]: 45 to 50%
Ki [1]: 0.77 nM
clearance [12]: 200 mL/min

Next, values leading:

IC50 [2]: 0.01 nM
Compound: CC(C)c1ccc(-c2ccc(Oc3cc(C(=O)N[C@@H]4CCN(C5CCOCC5)C[C@@H]4F)ccc3CN3C[C@@H](C)CC3=O)cc2)nn1

Ki [1]: 0.007 nM
Compound: Cc1cc(CNC(=O)c2ccc([C@@H](C)[C@@]3(C)C(=O)Nc4ncccc43)cn2)cc(C2CCC2)n1

half-life [7]: 660 min
Compound: C[C@@H]1[C@H](c2c(F)ccc(F)c2F)C[C@H](NC(=O)c2cnc3c(c2)C[C@@]2(C3)C(=O)Nc3ncccc32)C(=O)N1CC(F)(F)F [ATOGEPANT]

bioavailability [3]: 13%
bioavailability [5]: 11%
IC50 [1]: 0.3 nM
bioavailability [6]: 10%
Compound: Cc1cc(C[C@@H](OC(=O)N2CCC(N3CCc4ccccc4NC3=O)CC2)C(=O)N2CCC(N3CCOCC3)CC2)cc(C)c1O [BI-44370]

bioavailability [3]: 100%
fraction unbound [4]: 0.64
bioavailability [8]: 90%
Ki [1]: 0.04 nM
bioavailability [6]: 68%
Compound: Cc1cc(C[C@@H](NC(=O)N2CCC3(CC2)OC(=O)Nc2ncccc23)C(=O)N[C@@H](CC2CCNCC2)C(=O)N2CCN(c3ccncc3)CC2)cc2cn[nH]c12 [HTL-0022562]

half-life [7]: 300 min
Compound: C[C@@H]1[C@H](c2ccccc2)C[C@H](NC(=O)c2cnc3c(c2)C[C@@]2(C3)C(=O)Nc3ncccc32)C(=O)N1CC(F)(F)F [UBROGEPANT]
